Experiments:
c-FLIP promoter = c-FLIP promoter luciferase assay in fluoxetine-treated NSCs; type: cell-based, rat; conditions: fluoxetine 20 μm
Procedure: All animal used were treated in accordance with the Animal Care and Use Committee guideline at Taipei Veterans General Hospital. Adult Sprague-Dawley rats (8 weeks old, 250 g) were anesthetized with intraperitoneal phenobarbital (Sigma, USA). The location of their brains was mapped: then, the brain was surgically separated from the hippocampus region with the procedure. Tissues from the hippocampus of the adult SD rats were dissociated and incubated in Hank's balanced salt solution (HBSS) containing collagenase (78 units/ml) and hyaluronidase (38 units/ml) for 10 mins at 37° C. The tissues were then mechanically dissected and placed in a trypsin solution (1.33 mg/ml) at 37° C. for another 10 mins. Dissociated cells were then centrifuged at 150 g for 5 mins. The enzyme solution was then removed and replaced with serum-free culture media composed of Dulbecco modified Eagle medium (DMEM) and F-12 nutrient (1:1) including insulin (25 μg/mL), transferrin (100 μg/mL), progesterone (20 nM), putrescine (60 μM), sodium selenite (30 nM), and human […] epidermal growth factor (EGF) 20 ng/mL and fibroblast growth factor-basic (bFGF) 20 ng/mL (R&D Systems, Minneapolis, Minn.). Viable cells were counted by trypan blue exclusion and plated as 5000 cells/200 μL per well in 96-well plates (Corning, Acton, Mass.) with no substrate pretreatment. […]

c-FLIP [1] = assay: c-FLIP mRNA expression in fluoxetine-treated NSCs (real-time RT-PCR); type: cell-based, rat; conditions: FL-treated NSCs
Procedure: All animal used were treated in accordance with the Animal Care and Use Committee guideline at Taipei Veterans General Hospital. Adult Sprague-Dawley rats (8 weeks old, 250 g) were anesthetized with intraperitoneal phenobarbital (Sigma, USA). The location of their brains was mapped: then, the brain was surgically separated from the hippocampus region with the procedure. Tissues from the hippocampus of the adult SD rats were dissociated and incubated in Hank's balanced salt solution (HBSS) containing collagenase (78 units/ml) and hyaluronidase (38 units/ml) for 10 mins at 37° C. The tissues were then mechanically dissected and placed in a trypsin solution (1.33 mg/ml) at 37° C. for another 10 mins. Dissociated cells were then centrifuged at 150 g for 5 mins. […] Viable cells were counted by trypan blue exclusion and plated as 5000 cells/200 μL per well in 96-well plates (Corning, Acton, Mass.) with no substrate pretreatment.
For real-time RT-PCR, the total RNA was extracted using the RNAeasy kit (Qiagen, Valencia, Calif., USA) as previously described C. […] The quantification in the unknown samples was performed by the LightCycler Relative Quantification Software version 3.3 (Roche Molecular Systems, Alameda, Calif., USA). […]

c-FLIP [2] = assay: Protein levels of c-FLIP and pro-caspases in fluoxetine-treated NSCs (Western, immunostaining); type: cell-based, rat
Procedure: All animal used were treated in accordance with the Animal Care and Use Committee guideline at Taipei Veterans General Hospital. Adult Sprague-Dawley rats (8 weeks old, 250 g) were anesthetized with intraperitoneal phenobarbital (Sigma, USA). The location of their brains was mapped: then, the brain was surgically separated from the hippocampus region with the procedure. Tissues from the hippocampus of the adult SD rats were dissociated and incubated in Hank's balanced salt solution (HBSS) containing collagenase (78 units/ml) and hyaluronidase (38 units/ml) for 10 mins at 37° C. The tissues were then mechanically dissected and placed in a trypsin solution (1.33 mg/ml) at 37° C. for another 10 mins. Dissociated cells were then centrifuged at 150 g for 5 mins. The enzyme solution was then removed and replaced with serum-free culture media composed of Dulbecco modified Eagle medium (DMEM) and F-12 nutrient (1:1) including insulin (25 μg/mL), transferrin (100 μg/mL), progesterone (20 nM), putrescine (60 μM), sodium selenite (30 nM), and human […] epidermal growth factor (EGF) 20 ng/mL and fibroblast growth factor-basic (bFGF) 20 ng/mL (R&D Systems, Minneapolis, Minn.). Viable cells were counted by trypan blue exclusion and plated as 5000 cells/200 μL per well in 96-well plates (Corning, Acton, Mass.) with no substrate pretreatment.
The pGL3-FLIP was obtained from based on T. Bartke et al., Oncogene 20 (2001) 571-580. The c-FLIP promoter deletion constructs pGL3-FLIP978, pGL3-FLIP696, pGL3-FLIP414 and pGL3-FLIP132 were generated by PCR amplification of corresponding DNA sequences from pGL3-FLIP using the following forward primers 5′-[…] […]
An avidin-biotin complex method was used for the immunohistochemical staining in the differentiated NSCs. […] Immunoreactive signals were detected with a mixture of biotinylated rabbit antimouse IgG and Fluoesave (Calbiochem, La Jolla, Calif., USA) under immunofluorescent microscope (Olympus FV300).

[3] = Bile duct microdialysis with HPLC-UV of unbound cefoperazone in rat bile; type: in vivo; conditions: male, Sprague-Dawley, bile microdialysate (bile duct), 360 min following cefoperazone intravenous administration (30 mg/kg), read-out: cefoperazone concentration in microdialysate from rat biliary duct
Procedure: Adult, male Sprague-Dawley rats (280-350 g) were obtained from the Laboratory Animal Center at National Yang-Ming University (Taipei, Taiwan). These animals were specifically pathogen-free and were allowed to acclimate to their environmentally controlled quarters (24±1° C. and 12:12 h light-dark cycle) for at least 5 days before the experiments began. At the start of experiments, the rats were anesthetized with urethane 0.8 g/ml and chloralose 0.08 g/ml ([…], i.p.). Throughout the experimental period, anesthesia was maintained by administering one quarter of the initial dose at each hour. The experimental animals were kept warm with a heating pad throughout the experiments.
The HPLC system consisted of a chromatographic pump (BAS PM-80, Bioanalytical System, West Lafayette, Ind., USA), an on-line injector (CMA/160, Stockholm, Sweden) equipped with a 20 μl sample loop and a UV detector (Soma S-3702, Tokyo, Japan). […] Output signal from the HPLC-UV was recorded using an EZChrom chromatographic data system (Scientific Software, San Ramon, Calif., USA). […]
For in vivo recovery, normal saline solution containing cefoperazone (50 or 100 μg/ml) were pumped through the probes at a constant flow rate (2 μl/min) using the infusion pump (CMA/100). After a stabilization period of 2 h, the inlet (C^in) and outlet (C^out) concentrations of cefoperazone were determined by HPLC. […]

[4] = different concentrations of fluoxetine treatment

| Compound | c-FLIP promoter (−414 to −133 bp) region activity (c-FLIP promoter) | mRNA expression of c-FLIP (c-FLIP [1]) | protein expression of c-FLIP (c-FLIP [2]; FL-treated NSCs) | protein level of inactive caspase 3 (pro-form) (c-FLIP [2]; [4]) | protein level of inactive caspase 8 (pro-form) (c-FLIP [2]; [4]) | concentration at 360 min [3] [ng/mL] |
| --- | --- | --- | --- | --- | --- | --- |
| CNCCC(Oc1ccc(C(F)(F)F)cc1)c1ccccc1 (stereo not drawn) [FL, fluoxetine] | Activates | up-regulated | up-regulated | not decreased | not decreased |  |
| CCN1CCN(C(=O)N[C@@H](C(=O)N[C@@H]2C(=O)N3C(C(=O)O)=C(CSc4nnnn4C)CS[C@H]23)c2ccc(O)cc2)C(=O)C1=O [cefoperazone] |  |  |  |  |  | 27800 |

Reference: patent US20090105562A1, “SYSTEM AND METHODS FOR SCREENING OR ANALYZING TARGETS” (TAIPEI VETERANS GENERAL HOSPITAL, priority 2007, published 2009)
